Tests used:
Vasopressin V2 receptor [1] = target: T1, Vasopressin V2 receptor (Homo sapiens, UniProt P30518); experiment: Displacement of [3H]AVP from human V2 receptors expressed in HEK293 cells; type: cell-based
Vasopressin V2 receptor [2] = target: T1, Vasopressin V2 receptor; experiment: Compound was assessed for their ability to displace [3H]AVP from human V2 receptors transfected into HEK293 cells at 0.1 uM concentration; type: cell-based
Vasopressin V2 receptor [3] = target: T1, Vasopressin V2 receptor; experiment: Inhibitory activity of the human V2 receptor was assessed by the accumulation of cAMP in transfected HEK293 cells.; type: functional, cell-based
Vasopressin V1a receptor = Vasopressin V1a receptor (Homo sapiens, UniProt P37288); experiment: Binding affinity towards VIa receptor
Vasopressin V2 receptor [4] = target: Vasopressin V2 receptor (Rattus norvegicus, UniProt Q00788); experiment: Binding affinity towards V2 receptor
Vasopressin V2 receptor (Rattus norvegicus, UniProt Q00788), sequence (Q00788 whole entry): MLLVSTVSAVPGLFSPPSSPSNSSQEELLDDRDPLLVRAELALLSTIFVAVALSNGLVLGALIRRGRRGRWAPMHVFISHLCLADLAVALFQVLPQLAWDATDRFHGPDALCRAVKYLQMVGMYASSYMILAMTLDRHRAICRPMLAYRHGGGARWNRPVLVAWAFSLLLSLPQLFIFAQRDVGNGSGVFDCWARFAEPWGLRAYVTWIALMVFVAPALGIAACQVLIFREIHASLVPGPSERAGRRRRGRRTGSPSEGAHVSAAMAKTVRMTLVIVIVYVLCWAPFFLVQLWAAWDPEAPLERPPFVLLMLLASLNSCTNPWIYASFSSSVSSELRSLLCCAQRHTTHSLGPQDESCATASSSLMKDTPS

T1 sequence (P30518 whole entry): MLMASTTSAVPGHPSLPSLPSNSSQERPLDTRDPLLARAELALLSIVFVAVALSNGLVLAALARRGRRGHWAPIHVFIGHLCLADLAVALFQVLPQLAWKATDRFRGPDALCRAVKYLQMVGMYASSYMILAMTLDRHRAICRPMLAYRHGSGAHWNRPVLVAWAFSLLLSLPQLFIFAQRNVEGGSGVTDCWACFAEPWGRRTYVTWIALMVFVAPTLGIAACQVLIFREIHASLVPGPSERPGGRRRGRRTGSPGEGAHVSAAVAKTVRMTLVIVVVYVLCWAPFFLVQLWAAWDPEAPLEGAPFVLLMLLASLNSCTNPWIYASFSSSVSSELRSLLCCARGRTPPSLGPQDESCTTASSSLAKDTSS
Vasopressin V1a receptor, sequence (P37288 whole entry): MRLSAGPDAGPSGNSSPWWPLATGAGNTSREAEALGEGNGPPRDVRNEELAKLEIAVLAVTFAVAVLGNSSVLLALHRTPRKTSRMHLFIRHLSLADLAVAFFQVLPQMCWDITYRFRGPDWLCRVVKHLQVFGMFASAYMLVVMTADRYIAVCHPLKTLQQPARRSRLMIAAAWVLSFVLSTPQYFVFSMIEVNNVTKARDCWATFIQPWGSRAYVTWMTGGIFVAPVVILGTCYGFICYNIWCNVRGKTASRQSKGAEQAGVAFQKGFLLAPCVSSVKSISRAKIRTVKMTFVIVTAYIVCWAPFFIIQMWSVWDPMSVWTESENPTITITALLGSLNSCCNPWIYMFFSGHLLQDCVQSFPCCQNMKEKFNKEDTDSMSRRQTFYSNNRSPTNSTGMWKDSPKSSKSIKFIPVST

Row | SMILES | IC50 (Vasopressin V2 receptor [1]) [nM] | also measured
1 | Cc1ccc(-c2ccccc2C(=O)Nc2ccc(C(=O)N3CCCc4cn(C)c5cccc3c45)cc2)cc1 | 210 | 
2 | Cc1ccc(-c2ccccc2C(=O)Nc2ccc(C(=O)N3CCCc4cn(Cc5ccccc5)c5cccc3c45)cc2)cc1 |  | inhibition (Vasopressin V2 receptor [2]): < 30%
3 | O=C(Nc1ccc(C(=O)N2CCCc3c(Cl)[nH]c4cccc2c34)cc1)c1ccccc1-c1ccccc1 | 44 | 
4 | Cc1ccc(F)cc1C(=O)Nc1ccc(C(=O)N2Cc3cccn3Cc3ccccc32)c(Cl)c1 [LIXIVAPTAN] |  | IC50 (Vasopressin V2 receptor [3]): 91 nM
5 | O=C(Nc1ccc(C(=O)N2CCCc3c(S(=O)(=O)O)[nH]c4cccc2c34)cc1)c1ccccc1-c1ccccc1 | 13 | 
6 | O=C(Nc1ccc(C(=O)N2CCCc3c[nH]c4cccc2c34)cc1)c1ccccc1-c1ccccc1 | 20 | IC50 (Vasopressin V2 receptor [3]): 70 nM; IC50 (Vasopressin V1a receptor): 3100 nM; IC50 (Vasopressin V2 receptor [4]): 1 nM
7 | Cc1ccccc1C(=O)Nc1ccc(C(=O)N2CCCc3c[nH]c4cccc2c34)cc1 |  | inhibition (Vasopressin V2 receptor [2]): < 30%
8 | CC(=O)n1cc2c3c(cccc31)N(C(=O)c1ccc(NC(=O)c3ccccc3-c3ccc(C)cc3)cc1)CCC2 | 170 | 
9 | Cc1c(F)cccc1C(=O)Nc1ccc(C(=O)N2CCCc3c[nH]c4cccc2c34)cc1 | 180 | 
10 | Cc1ccc(-c2ccccc2C(=O)Nc2ccc(C(=O)N3CCCc4c[nH]c5cccc3c45)cc2)cc1 | 11 | IC50 (Vasopressin V2 receptor [3]): 70 nM
11 | CCCn1cc2c3c(cccc31)N(C(=O)c1ccc(NC(=O)c3ccccc3-c3ccc(C)cc3)cc1)CCC2 |  | inhibition (Vasopressin V2 receptor [2]): < 30%

More lines, main results first:

Row | IC50 (Vasopressin V2 receptor [1]) [nM] | SMILES | also measured
12 | 550 | CCOC(=O)Cn1cc2c3c(cccc31)N(C(=O)c1ccc(NC(=O)c3ccccc3-c3ccc(C)cc3)cc1)CCC2 | 
13 | 12 | O=C(Nc1ccc(C(=O)N2CCCc3c(S(=O)(=O)O)[nH]c4cccc2c34)cc1Cl)c1ccccc1-c1ccccc1 | 
14 | 15 | O=C(Nc1ccc(C(=O)N2CCCc3c[nH]c4cccc2c34)cc1Cl)c1ccccc1-c1ccccc1 | 
15 | 50 | O=C(Nc1ccc(C(=O)N2CCCc3c[nH]c4cccc2c34)c(Cl)c1)c1ccccc1-c1ccccc1 | IC50 (Vasopressin V2 receptor [3]): 330 nM
16 | 8 | O=C(Nc1ccc(C(=O)N2CCCC3C(=O)Nc4cccc2c43)cc1)c1ccccc1-c1ccccc1 (configuration not stated) | 
17 | 190 | Cc1ccc(F)cc1C(=O)Nc1ccc(C(=O)N2CCCc3c[nH]c4cccc2c34)cc1 | 
